Here are results for one compound from US20070010527A1, “4-Anilino-3-quinolinecarbonitriles for the treatment of cancer” (priority 2005, published 2007).

In experiment [1] the test system is BxPC3 pancreatic tumor cells. Briefly: Proliferation assay, CellTiter-Glo. Particulars: Homo sapiens, BXPC-3, 96 h, Cell-glo, day 4. Type of experiment: cell-based. Here is the method: (§1) For the experiments described in Table 3, 1000 cells were plated in each well of a 96 well cell culture dish on day 0 in the standard growth medium for that particular cell line. Compound was added on day 1. Relative cell number was determined on day 4.
(§2) The CellTiter-Glo luminescent cell viability assay (Promega #G7573) was used where cells were lysed with the CellTiter Glo reagent, agitated briefly and allowed to sit at room temperature for 30 minutes prior to analyzing on a Wallac plate reader equipped for luminescence readings.
(In general: In ATP-based viability assays light output follows the ATP content of the culture.)

Experiment [2] relates to A375 melanoma cells. Briefly: Proliferation assay, CellTiter-Glo. Type of experiment: cell-based. Particulars: Homo sapiens, A-375, 96 h, Cell-glo, day 4. As to the method:
as §1, §2

Experiment [3] relates to MiaPaca pancreatic tumor cells. The experiment can be described thus: Proliferation assay, CellTiter-Glo. Type of experiment: cell-based. Particulars: Homo sapiens, MIA PaCa-2, 96 h, Cell-glo, day 4. As to the method:
as §1, §2

In experiment [4] the test system is HN5 head and neck tumor cells. Briefly: Proliferation assay, CellTiter-Glo. The format is cell-based. Particulars: 96 h, Cell-glo, day 4. Here is the method: as §1, §2
Experiment [5] deals with DU145 prostate tumor cells. Briefly: Proliferation assay, CellTiter-Glo. Particulars: Homo sapiens, DU-145, 96 h, Cell-glo, day 4. The format is cell-based. As to the method: as §1, §2
In experiment [6] the test system is Capan pancreatic tumor cells. The experiment can be described thus: Proliferation assay, CellTiter-Glo. The format is cell-based. Particulars: 96 h, Cell-glo, day 4. Here is the method: as §1, §2
Experiment [7] has as its system LnCap prostate tumor cells. Briefly: Proliferation assay, CellTiter-Glo. The format is cell-based. Particulars: Homo sapiens, 96 h, Cell-glo, day 4. Here is the method: as §1, §2
Experiment [8] has as its system A375 melanoma subcutaneous tumor xenografts. Briefly: A375 melanoma subcutaneous tumor xenograft in nude mice. Type of experiment: in vivo. Particulars: 30 mg/kg bid ip 9 days, day 12. As to the method: All animal studies were conducted under an approved Institutional Animal Care and Use Committee protocol. Tumor cells were suspended to 50 million cells/ml and 0.2 ml of the cell suspension was injected subcutaneously into a flank of 6-7 weeks old female nude mice (Charles River, Wilmington, Mass.). Mice with tumors larger than 200 mm^3 after one week were administered vehicle or compound by intraperitoneal injection at the indicated doses in 0.2 ml of vehicle containing 0.5% methylcellulose and 0.4% polysorbate 80 (Tween 80).

The subject of experiment [9] is HN5 head and neck tumor line. Briefly: Phosphorylation of downstream proteins in EGF-stimulated HN5 cells. Type of experiment: cell-based. Particulars: serum-starved HN5 cells, compound 4 hours, then EGF 50 ng/ml ten minutes. Here is the method:
FIG. 1. […] Serum-starved HN5 cells were treated with the compound for 4 hours, after which EGF was added to 50 ng/ml for ten minutes. Lysates were analyzed for Stat3 Y705, c-Cbl Y731 and Y774 and caveolin Y14 phosphorylation.

The target of experiment [10] is CAMKII. The experiment can be described thus: CAMKII kinase ELISA. The format is biochemical. As to the method:
Assay Dilution Buffer (ADB): 20 mM MOPS, pH 7.2, 25 mM β-glycerol phosphate, 5 mM EGTA, 1 mM sodium orthovanadate, 1 mM dithiothreitol. 2. […] 3. […] 4. […] 5. […] 3. […] 4. […] 5. […] 6. […] 7.

In experiment [11] the test system is A375 melanoma cells. Briefly: Proliferation assay, SRB. The format is cell-based. Particulars: Homo sapiens, A-375, 96 h, day 4. Here is the method: as §1
(§3) The sulforhodamine B (SRB) assay was used for certain melanoma lines. In this assay, the serum concentration in the growth medium was 5% and culture medium volume was 0.2 ml. On day 4, 0.05 ml of 50% trichloroacetic acid was added to the medium and the plate was allowed to sit at room temperature for 1 hour. The medium was decanted and the plate was washed 3 times with water. The washed plates were dried, and then 0.08 ml of SRB reagent (SRB was obtained from Sigma; 0.4% SRB in 1% acetic acid) was added. After 10 minutes at room temperature, the plates were washed with 1% acetic acid until no free red color remained in solution. The bound SRB reagent was solubilized with 0.15 ml 10 mM Tris (no acid added). After agitating for 5 minutes on a shaker, the absorbance was read at 540 nm.

In experiment [12] the test system is RPMI-7951 melanoma cells. Briefly: Proliferation assay, SRB. The format is cell-based. Particulars: Homo sapiens, RPMI-7951, 96 h, day 4. As to the method:
as §1, §3

Experiment [13] has as its system HS-294-T melanoma cells. The experiment can be described thus: Proliferation assay, SRB. The format is cell-based. Particulars: Homo sapiens, 96 h, day 4. As to the method:
as §1, §3

In experiment [14] the test system is Molt-4 T-cell leukemia cells. The experiment can be described thus: Proliferation assay, MTS. Particulars: Homo sapiens, MOLT-4, 96 h, day 4. The format is cell-based. As to the method: as §1
(§4) Some assays were monitored with the aid of the CellTiter 96 assay (Promega #G3580). With this assay, on day 4, detection reagent was added to the 96 well plate and absorbance at 490 nm was measured.

In experiment [15] the test system is HSB-2 T-cell leukemia cells. The experiment can be described thus: Proliferation assay, MTS. The format is cell-based. Particulars: HSB2, 96 h, day 4. As to the method:
as §1, §4

In experiment [16] the target is T1, PKA (Bos taurus, UniProt P00517).
T1 construct: purchased Upstate 14-114
The experiment can be described thus: PKA Scintiplate kinase assay. Type of experiment: biochemical. The source says: PKA, PKC, S6 kinase, CAMKII and p38 kinase assays.

By IC50 is commonly meant the concentration at which inhibition is half-maximal. For `COc1cc(Nc2c(C#N)cnc3cc(OCCCN4CCN(C)CC4)c(OC)cc23)c(Cl)cc1Cl` [4-(2,4-dichloro-5-methoxy-phenylamino)-6-methoxy-7-[3-(4-methyl-piperazin-1-yl)-propoxy]-quinoline-3-carbonitrile], the IC50 in experiment [1] came out at 3.9 µM; in experiment [2], 1.2 µM; in [3], 1.3 µM; in [4], 0.3 µM; in [5], 1.6 µM; in [6], 5.9 µM. Besides, the IC50 in experiment [7] was 3.5 µM; in [10], 6.25 µM; in [11], 0.9 µM; in experiment [12], 1.2 µM; in experiment [13] it was 0.6 µM; in experiment [14], 8.2 µM. The IC50 is 0.014 µM in experiment [15] and 5.03 µM in experiment [16]. The T/C in [8] is given as 39%, day 12. In [9], the “phosphorylation of Y705 of Stat3” value is listed as “reduced”. For the same compound, the “phosphorylation of c-Cbl Y731” value in experiment [9] was “reduced”. Further, the “phosphorylation of caveolin Y14” value in experiment [9] was “reduced”.
